Structures can show the parent of a compound that is named as a salt.
Biological target: T1, recombinant guanylate cyclase reporter cell line (Rattus norvegicus, UniProt P19686+P20595)
T1 construct: expressed in transfected cells
T1 sequence (P20595 1-619): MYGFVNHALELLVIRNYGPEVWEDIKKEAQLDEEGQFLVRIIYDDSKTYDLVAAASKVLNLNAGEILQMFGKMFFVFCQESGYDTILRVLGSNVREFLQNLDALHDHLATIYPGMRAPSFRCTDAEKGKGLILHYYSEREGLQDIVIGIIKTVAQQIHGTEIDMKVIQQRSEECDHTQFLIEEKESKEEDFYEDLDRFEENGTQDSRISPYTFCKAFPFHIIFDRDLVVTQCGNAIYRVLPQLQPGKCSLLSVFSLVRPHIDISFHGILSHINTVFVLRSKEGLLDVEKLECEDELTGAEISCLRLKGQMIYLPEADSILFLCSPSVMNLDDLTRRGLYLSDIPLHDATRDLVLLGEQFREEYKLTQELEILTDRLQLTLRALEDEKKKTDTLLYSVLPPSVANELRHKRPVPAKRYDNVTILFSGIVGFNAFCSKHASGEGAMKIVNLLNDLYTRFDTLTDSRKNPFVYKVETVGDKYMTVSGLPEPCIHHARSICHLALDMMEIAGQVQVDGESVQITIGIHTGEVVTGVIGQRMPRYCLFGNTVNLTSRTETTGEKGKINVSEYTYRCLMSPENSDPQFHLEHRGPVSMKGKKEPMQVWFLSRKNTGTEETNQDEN
T1 sequence (P19686 1-690): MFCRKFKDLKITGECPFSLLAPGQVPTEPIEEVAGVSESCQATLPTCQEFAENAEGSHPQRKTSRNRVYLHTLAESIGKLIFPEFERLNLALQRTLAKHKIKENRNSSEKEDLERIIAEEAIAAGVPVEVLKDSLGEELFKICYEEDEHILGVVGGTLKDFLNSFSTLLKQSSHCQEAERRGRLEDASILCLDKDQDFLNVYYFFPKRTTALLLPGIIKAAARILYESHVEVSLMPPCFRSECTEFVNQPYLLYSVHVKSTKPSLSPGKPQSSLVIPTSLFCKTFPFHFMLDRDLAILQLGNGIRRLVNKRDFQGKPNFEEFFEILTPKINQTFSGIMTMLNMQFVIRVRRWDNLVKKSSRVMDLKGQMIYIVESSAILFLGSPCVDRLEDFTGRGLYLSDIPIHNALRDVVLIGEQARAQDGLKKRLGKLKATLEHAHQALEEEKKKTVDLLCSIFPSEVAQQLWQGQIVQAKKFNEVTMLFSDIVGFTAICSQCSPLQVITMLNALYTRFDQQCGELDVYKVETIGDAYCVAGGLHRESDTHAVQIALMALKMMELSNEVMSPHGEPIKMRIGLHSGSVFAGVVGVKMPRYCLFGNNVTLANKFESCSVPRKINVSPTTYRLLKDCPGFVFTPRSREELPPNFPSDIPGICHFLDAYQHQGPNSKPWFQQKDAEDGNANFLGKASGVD
Experiment: Action on recombinant guanylate cyclase reporter cell line
Assay type: cell-based
Conditions: in some cases mean values obtained from individual determinations
Method in brief: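 Cell-based reporter assay with recombinant guanylate cyclase expressed in a reporter cell line, per a published method. Activity reported as minimal effective concentration (MEC), in some cases as the mean of individual determinations.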

Row | Structure (SMILES) | MEC (minimal effective concentration) [µM]
1 | CCCC[C@H](CO)NC(=O)c1c(C)nc2c(OCc3cccc(C(F)(F)F)c3F)cccn12 [Example 14] | 3.0
2 | CCCC[C@H](CO)NC(=O)c1c(C)nc2c(OCc3c(F)cc(F)cc3F)cccn12 [Example 15, N-[(2R)-1-Hydroxyhexan-2-yl]-2-methyl-8-[(2,4,6-trifluorobenzyl)oxy]imidazo[1,2-a]pyridine-3-carboxamide] | 0.1
3 | CC[C@H](CO)NC(=O)c1c(C)nc2c(OCc3ccccc3)cccn12 [Example 17, 8-(Benzyloxy)-N-[(2R)-1-hydroxybutan-2-yl]-2-methylimidazo[1,2-a]pyridine-3-carboxamide] | 3.0
4 | Cc1nc2c(OCc3c(F)cccc3F)cccn2c1C(=O)N[C@H]1CCC[C@@H]1O [Example 19] | 1.0
5 | Cc1nc2c(OCc3c(F)cccc3F)cccn2c1C(=O)NCCCO [Example 22] | 1.0
6 | Cc1nc2c(OCc3c(F)cccc3F)cccn2c1C(=O)NCCCCO [Example 23] | 0.3
7 | Cc1nc2c(OCc3c(F)cccc3F)cccn2c1C(=O)NCCOCCO [Example 24] | 1.0
8 | Cc1nc2c(OCc3c(F)cccc3F)cccn2c1C(=O)NCC1CCCC[C@H]1O (stereo partly drawn) [Example 27] | 0.3
9 | Cc1nc2c(OCc3c(F)cccc3F)cccn2c1C(=O)NC1(CO)CCCC1 [Example 31] | 1.0
10 | Cc1nc2c(OCc3c(F)cccc3F)cccn2c1C(=O)NC[C@@H](O)c1ccccc1 [Example 32] | 1.0
11 | Cc1nc2c(OCc3c(F)cccc3F)cccn2c1C(=O)NC[C@H](O)c1ccccc1 [Example 33] | 0.3
12 | Cc1nc2c(OCc3c(F)cccc3F)cccn2c1C(=O)N[C@@H]1CCC[C@H]1O [Example 36] | 0.1
13 | Cc1nc2c(OCc3c(F)cccc3F)cccn2c1C(=O)N[C@@H]1CCC[C@@H]1O [Example 37] | 0.3
14 | Cc1nc2c(OCc3c(F)cccc3F)cccn2c1C(=O)N[C@@H](CO)Cc1ccccc1 [Example 38] | 0.3
15 | Cc1nc2c(OCc3c(F)cccc3F)cccn2c1C(=O)N[C@H]1c2ccccc2C[C@H]1O [Example 40, 8-[(2,6-difluorobenzyl)oxy]-N-[(1S,2R)-2-hydroxy-2,3-dihydro-1H-inden-1-yl]-2-methylimidazo[1,2-a]pyridine-3-carboxamide] | 0.1
16 | CC[C@H](CO)NC(=O)c1c(C)nc2c(OCc3cccc(F)c3F)cccn12 [Example 44, 8-[(2,3-difluorobenzyl)oxy]-N-[(2R)-1-hydroxybutan-2-yl]-2-methylimidazo[1,2-a]-pyridine-3-carboxamide] | 0.3
17 | CC[C@H](CO)NC(=O)c1c(C)nc2c(OCc3cccc(Cl)c3Cl)cccn12 [Example 45, 8-[(2,3-dichlorobenzyl)oxy]-N-[(2R)-1-hydroxybutan-2-yl]-2-methylimidazo[1,2-a]-pyridine-3-carboxamide] | 0.65
18 | Cc1nc2c(OCc3ccccc3)cccn2c1C(=O)N[C@@H](C)CO [Example 46, 8-(Benzyloxy)-N-[(2S)-1-hydroxypropan-2-yl]-2-methylimidazo[1,2-a]pyridine-3-carboxamide] | 3.0
19 | Cc1nc2c(OCc3cccc(Cl)c3Cl)cccn2c1C(=O)NCCC1(O)CCCC1 [Example 47, 8-[(2,3-dichlorobenzyl)oxy]-N-[2-(1-hydroxycyclopentyl)ethyl]-2-methylimidazo[1,2-a]-pyridine-3-carboxamide] | 0.3
20 | Cc1nc2c(OCc3ccccc3)cccn2c1C(=O)NCCC1(O)CCCC1 [Example 48, 8-(benzyloxy)-N-[2-(1-hydroxycyclopentyl)ethyl]-2-methylimidazo[1,2-a]pyridine-3-carboxamide] | 1.0
21 | Cc1nc2c(OCc3cccc(Cl)c3Cl)cccn2c1C(=O)NC(CO)CO [Example 49, 8-[(2,3-dichlorobenzyl)oxy]-N-(1,3-dihydroxypropan-2-yl)-2-methylimidazo[1,2-a]-pyridine-3-carboxamide] | 2.0
22 | Cc1nc2c(OCc3ccccc3F)cccn2c1C(=O)NC(CO)CO [Example 51, N-(1,3-dihydroxypropan-2-yl)-8-[(2-fluorobenzyl)oxy]-2-methylimidazo[1,2-a]pyridine-3-carboxamide] | 5.5
23 | Cc1cccc(COc2cccn3c(C(=O)NC(CO)CO)c(C)nc23)c1Cl [Example 52, 8-[(2-chloro-3-methylbenzyl)oxy]-N-(1,3-dihydroxypropan-2-yl)-2-methylimidazo[1,2-a]-pyridine-3-carboxamide] | 10
24 | Cc1nc2c(OCc3c(Cl)cccc3Cl)cccn2c1C(=O)NC(CO)CO [Example 53, 8-[(2,6-dichlorobenzyl)oxy]-N-(1,3-dihydroxypropan-2-yl)-2-methylimidazo[1,2-a]-pyridine-3-carboxamide] | 10
25 | CCc1nc2c(OCC3CCCCC3)cccn2c1C(=O)N[C@H](C)CO [Example 55, 8-(Cyclohexylmethoxy)-2-ethyl-N-[(2R)-1-hydroxypropan-2-yl]imidazo[1,2-a]pyridine-3-carboxamide formic acid salt] | 0.1
26 | C[C@@H](CO)NC(=O)c1c(C(F)(F)F)nc2c(OCC3CCCCC3)cccn12 [Example 56, 8-(cyclohexylmethoxy)-N-[(2S)-1-hydroxypropan-2-yl]-2-(trifluoromethyl)imidazo[1,2-a]pyridine-3-carboxamide] | 1.0

More lines, now with the values ahead:

Row | MEC (minimal effective concentration) [µM] | Structure (SMILES)
27 | 0.1 | CCC[C@H](CO)NC(=O)c1c(C)nc2c(OCc3c(F)cccc3F)cccn12 [Example 18]
28 | 1.0 | Cc1nc2c(OCc3c(F)cccc3F)cccn2c1C(=O)NC(C)(C)[C@H](C)O [Example 20]
29 | 1.0 | Cc1nc2c(OCc3c(F)cccc3F)cccn2c1C(=O)NCCO [Example 21]
30 | 0.1 | CSCC[C@H](CO)NC(=O)c1c(C)nc2c(OCc3c(F)cccc3F)cccn12 [Example 25]
31 | 2.0 | Cc1nc2c(OCc3c(F)cccc3F)cccn2c1C(=O)NC(CO)CO [Example 26]
32 | 0.65 | Cc1nc2c(OCc3c(F)cccc3F)cccn2c1C(=O)NCCC(C)O (stereo not drawn) [Example 28]
33 | 0.1 | Cc1nc2c(OCc3c(F)cccc3F)cccn2c1C(=O)N[C@@H](CO)C(C)C [Example 29]
34 | 0.3 | CCC(O)CNC(=O)c1c(C)nc2c(OCc3c(F)cccc3F)cccn12 (stereo not drawn) [Example 30]
35 | 0.3 | Cc1nc2c(OCc3c(F)cccc3F)cccn2c1C(=O)NC(C)(C)CO [Example 34]
36 | 0.3 | Cc1nc2c(OCc3c(F)cccc3F)cccn2c1C(=O)N[C@@H](CO)C(C)(C)C [Example 35]
37 | 0.03 | Cc1nc2c(OCc3c(F)cccc3F)cccn2c1C(=O)N[C@@H](CO)CC(C)C [Example 39, 8-[(2,6-Difluorobenzyl)oxy]-N-[(2R)-1-hydroxy-4-methylpentan-2-yl]-2-methylimidazo[1,2-a]-pyridine-3-carboxamide]
38 | 3.0 | Cc1nc2c(OCc3c(F)cccc3F)cccn2c1C(=O)NCC(C)(C)CO [Example 41, 8-[(2,6-difluorobenzyl)oxy]-N-(3-hydroxy-2,2-dimethylpropyl)-2-methylimidazo[1,2-a]-pyridine-3-carboxamide]
39 | 0.16 | CC[C@H](CO)NC(=O)c1c(C)nc2c(OCc3c(F)cccc3F)cccn12 [Example 43, 8-[(2,6-Difluorobenzyl)oxy]-N-[(2R)-1-hydroxybutan-2-yl]-2-methylimidazo[1,2-a]pyridine-3-carboxamide]

Source: US8946215B2, “Hydroxy-substituted imidazo[1,2-a]pyridinecarboxamides and their use” (Bayer Pharma Aktiengesellschaft, priority 2012, dated 2015)
